For 22 molecules, T/C results are on record in PubChem BioAssay AID330 (DTP/NCI, 2004).

Several values for one entry are separate records, joined by “and”; a condition that tells them apart may be missing. Equal entries are not always repeated. Inconclusive results and toxic doses are left out.

For the assay, the system named is P388 leukemia ip, CD2F1 mice, survival T/C. As to the kind of experiment: NCI In Vivo Anticancer Drug Screen. Data for tumor model P388 Leukemia (intraperitoneal) in CD2F1 (CDF1) mice. Particulars: endpoint: median survival time, higher = longer survival. An outline of the steps: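 Mice carrying the transplanted tumor received test compound or vehicle. Survival was recorded in each group, and the value is the treated-group measurement divided by that of the vehicle-treated control group.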

Setting [1] is: dose: 60.0 mg/kg/injection, schedule: Q01DX005 (ip), vehicle: saline with Tween-80.
The mark [2] stands for this setting: dose: 120.0 mg/kg/injection, schedule: Q01DX005 (ip), vehicle: saline with Tween-80.
[3] abbreviates: dose: 240.0 mg/kg/injection, schedule: Q01DX005 (ip), vehicle: saline with Tween-80.
Setting [4] is: dose: 50.0 mg/kg/injection, schedule: Q01DX005 (ip), vehicle: saline with Tween-80.
Where [5] appears, read: dose: 12.5 mg/kg/injection, schedule: Q01DX009 (ip), vehicle: saline with Tween-80.
Setting [6] is: dose: 25.0 mg/kg/injection, schedule: Q01DX009 (ip), vehicle: saline with Tween-80.
The mark [7] stands for this setting: dose: 50.0 mg/kg/injection, schedule: Q01DX009 (ip), vehicle: saline with Tween-80.
The mark [8] stands for this setting: dose: 50.0 mg/kg/injection, schedule: Q01DX009 (ip), vehicle: Klucel (hydroxypropylcellulose) (HPC).
Setting [9] is: dose: 100.0 mg/kg/injection, schedule: Q01DX009 (ip), vehicle: Klucel (hydroxypropylcellulose) (HPC).

Take `C=C1C(O)C2OC(=O)C(=C)C2C(OC(=O)/C(C)=C/C)CC2(C)OC2C2OC12` (stereo not drawn): the T/C reads like this: (dose: 4.0 mg/kg/injection, schedule: Q01DX005 (ip), vehicle: Klucel (hydroxypropylcellulose) (HPC)) 96 % of control; (dose: 8.0 mg/kg/injection, schedule: Q01DX005 (ip), vehicle: Klucel (hydroxypropylcellulose) (HPC)) 103 % of control; (dose: 16.0 mg/kg/injection, schedule: Q01DX005 (ip), vehicle: Klucel (hydroxypropylcellulose) (HPC)) 100 % of control; (dose: 32.0 mg/kg/injection, schedule: Q01DX005 (ip), vehicle: Klucel (hydroxypropylcellulose) (HPC)) 116 % of control; (dose: 50.0 mg/kg/injection, schedule: Q01DX005 (ip), vehicle: Klucel (hydroxypropylcellulose) (HPC)) 115 % of control; (dose: 64.0 mg/kg/injection, schedule: Q01DX005 (ip), vehicle: Klucel (hydroxypropylcellulose) (HPC)) 116 % of control. In addition, the T/C runs as follows: (dose: 100.0 mg/kg/injection, schedule: Q01DX005 (ip), vehicle: Klucel (hydroxypropylcellulose) (HPC)) 109 % of control; (dose: 200.0 mg/kg/injection, schedule: Q01DX005 (ip), vehicle: Klucel (hydroxypropylcellulose) (HPC)) 103 % of control.

In the case of `COc1ccc(Nc2nc3c(s2)c(C)c(O)c2ccccc23)cc1`, the T/C is, setting by setting: under setting [1], 95 % of control; under setting [2], 103 % of control; under setting [3], 112 % of control.

In the case of `CCCCCNC(=O)OCc1c(COC(=O)NCCCCC)c(-c2ccc(Cl)c(Cl)c2)n2c1CCC2`, the T/C (dose: 6.25 mg/kg/injection, schedule: Q01DX009 (ip), vehicle: distilled water + Tween-80) was 113 % of control; the T/C (dose: 12.5 mg/kg/injection, schedule: Q01DX009 (ip), vehicle: distilled water + Tween-80) is 101 % of control and 110 % of control; the T/C (dose: 25.0 mg/kg/injection, schedule: Q01DX009 (ip), vehicle: distilled water + Tween-80) is 108 % of control and 116 % of control; the T/C (dose: 100.0 mg/kg/injection, schedule: Q01DX009 (ip), vehicle: distilled water + Tween-80) is 165 % of control.

As for `N#CC1OC1c1cccnc1` (stereo not drawn), the T/C reads like this: (dose: 12.5 mg/kg/injection, schedule: Q01DX005 (ip), vehicle: saline with Tween-80) 105 % of control and 111 % of control; (dose: 25.0 mg/kg/injection, schedule: Q01DX005 (ip), vehicle: saline with Tween-80) 105 % of control and 106 % of control; under setting [4], 121 % of control.

`O=[N+]([O-])c1cccc(SNCCO)c1`: the T/C is, setting by setting: under setting [5], 108 % of control; under setting [6], 100 % of control; under setting [7], 100 % of control and 94 % of control.

`O=C(O)c1c2c(nc3ccccc13)CCCC2`: the T/C by setting is: (dose: 50.0 mg/kg/injection, schedule: Q01DX005 (ip), vehicle: Klucel + Tween-80) 94 % of control; (dose: 100.0 mg/kg/injection, schedule: Q01DX005 (ip), vehicle: Klucel + Tween-80) 107 % of control.

In the case of `CCOC(=O)CCCCCCN(/C=C(\C)CN1c2c(nc(N)[nH]c2=O)NCC1CNc1ccc(C(=O)NC(CCC(=O)O)C(=O)O)cc1)C(C)=O` (stereo not drawn), the T/C (dose: 50.0 mg/kg/injection, schedule: Q04DX003 (ip), vehicle: saline) is 97 % of control; the T/C (dose: 100.0 mg/kg/injection, schedule: Q04DX003 (ip), vehicle: saline) is 99 % of control; the T/C (dose: 200.0 mg/kg/injection, schedule: Q04DX003 (ip), vehicle: saline) is 98 % of control.

Regarding `C=C1CCN(c2ccc(OCC)cc2)C1=O`, the T/C is, setting by setting: (dose: 4.0 mg/kg/injection, schedule: Q01DX009 (ip), vehicle: saline + alcohol) 102 % of control and 113 % of control and 94 % of control; (dose: 8.0 mg/kg/injection, schedule: Q01DX009 (ip), vehicle: saline + alcohol) 101 % of control and 108 % of control and 91 % of control; (dose: 16.0 mg/kg/injection, schedule: Q01DX009 (ip), vehicle: saline + alcohol) 100 % of control and 91 % of control; (dose: 32.0 mg/kg/injection, schedule: Q01DX009 (ip), vehicle: saline + alcohol) 106 % of control and 111 % of control and 94 % of control; (dose: 64.0 mg/kg/injection, schedule: Q01DX009 (ip), vehicle: saline + alcohol) 100 % of control and 108 % of control and 95 % of control.

Consider `CC(C)COC1CC(C)(C)c2c(-c3ccccc3)nn(-c3ccccc3)c2O1` (stereo not drawn), for which the T/C under setting [5] is 93 % of control; the T/C under setting [6] was 93 % of control; the T/C under setting [7] is 88 % of control and 93 % of control.

In the case of `Cc1nc2ccccc2c(=O)n1C(C)C`, the T/C was 99 % of control (dose: 50.0 mg/kg/injection, schedule: Q01DX009 (ip), vehicle: saline); 100 % of control (dose: 100.0 mg/kg/injection, schedule: Q01DX009 (ip), vehicle: saline); 104 % of control (dose: 200.0 mg/kg/injection, schedule: Q01DX009 (ip), vehicle: saline).

In the case of `[Cl][Pt+2][Cl].[NH-]c1ccc(Cl)cc1[NH-]`, the T/C runs as follows: (dose: 6.25 mg/kg/injection, schedule: Q04DX002 (ip), vehicle: saline with Tween-80) 150 % of control; (dose: 12.5 mg/kg/injection, schedule: Q04DX002 (ip), vehicle: saline with Tween-80) 157 % of control; (dose: 25.0 mg/kg/injection, schedule: Q04DX002 (ip), vehicle: saline with Tween-80) 168 % of control.

Take `C#CCOC(=O)Nc1nc2ccc(C)cc2s1`: the T/C is 107 % of control (dose: 6.25 mg/kg/injection, schedule: Q01DX009 (ip), vehicle: Klucel (hydroxypropylcellulose) (HPC)); 104 % of control (dose: 12.5 mg/kg/injection, schedule: Q01DX009 (ip), vehicle: Klucel (hydroxypropylcellulose) (HPC)); 101 % of control (dose: 25.0 mg/kg/injection, schedule: Q01DX009 (ip), vehicle: Klucel (hydroxypropylcellulose) (HPC)).

With `O=C1COCC(=O)OCCOCCOCCOCCO1`, the T/C was 99 % of control (dose: 100.0 mg/kg/injection, schedule: Q04DX003 (ip), vehicle: Klucel (hydroxypropylcellulose) (HPC)); 102 % of control (dose: 200.0 mg/kg/injection, schedule: Q04DX003 (ip), vehicle: Klucel (hydroxypropylcellulose) (HPC)); 99 % of control (dose: 400.0 mg/kg/injection, schedule: Q04DX003 (ip), vehicle: Klucel (hydroxypropylcellulose) (HPC)).

`CCCCn1cnc2c(cnn2C)c1=N`: the T/C is 97 % of control (dose: 100.0 mg/kg/injection, schedule: Q04DX002 (ip), vehicle: saline) and 97 % of control (dose: 200.0 mg/kg/injection, schedule: Q04DX002 (ip), vehicle: saline).

On to `CC1=CC(C)(C)Nc2ccc(OC(=O)/C=C(C)/C=C/C=C(C)/C=C/C3=C(C)CCCC3(C)C)cc21`, for which the T/C by setting is: under setting [1], 94 % of control; under setting [2], 91 % of control; under setting [3], 94 % of control.

In the case of `NC(N)=NS(=O)(=O)c1ccc(N=Nc2c(O)n(-c3ccccc3)n(-c3ccccc3)c2=O)cc1`, the T/C was 88 % of control under setting [8] and 94 % of control under setting [9].

Turning to `CC1CCCCC1O` (stereo not drawn), the T/C is, setting by setting: (dose: 50.0 mg/kg/injection, schedule: Q04DX003 (ip), vehicle: saline with Tween-80) 110 % of control; (dose: 100.0 mg/kg/injection, schedule: Q04DX003 (ip), vehicle: saline with Tween-80) 115 % of control; (dose: 200.0 mg/kg/injection, schedule: Q04DX003 (ip), vehicle: saline with Tween-80) 115 % of control.

Regarding `Cc1cc(C)c(CSc2cc(N)nc(N)c2N)c(C)c1`, the T/C runs as follows: under setting [8], 104 % of control; under setting [9], 107 % of control.

On to `CC(CC(N)C(=O)O)C(=O)O` (stereo not drawn), for which the T/C (dose: 50.0 mg/kg/injection, schedule: Q01DX005 (ip), vehicle: saline) is 103 % of control; the T/C under setting [8] was 103 % of control; the T/C (dose: 100.0 mg/kg/injection, schedule: Q01DX005 (ip), vehicle: saline) was 98 % of control; the T/C under setting [9] is 102 % of control; the T/C (dose: 200.0 mg/kg/injection, schedule: Q01DX005 (ip), vehicle: saline) was 100 % of control; the T/C (dose: 200.0 mg/kg/injection, schedule: Q01DX009 (ip), vehicle: Klucel (hydroxypropylcellulose) (HPC)) is 103 % of control. Moreover, under “dose: 400.0 mg/kg/injection, schedule: Q01DX009 (ip), vehicle: Klucel (hydroxypropylcellulose) (HPC)”, the T/C was 103 % of control.

On to `O=C(C1CCCCC1)C1CCCCC1CC1CCCCC1` (stereo not drawn), for which the T/C under setting [4] is 102 % of control; the T/C (dose: 100.0 mg/kg/injection, schedule: Q01DX005 (ip), vehicle: saline with Tween-80) was 107 % of control; the T/C (dose: 200.0 mg/kg/injection, schedule: Q01DX005 (ip), vehicle: saline with Tween-80) is 107 % of control.

Turning to `COc1ccccc1NC(=O)C1=C(C)NC(C)=C(C(=O)Nc2ccccc2C)C1c1ccccc1` (stereo not drawn), the T/C is 100 % of control under setting [1], 104 % of control under setting [2] and 89 % of control under setting [3].

For the molecule `Cc1ccc(N=CN(C)Sc2ccc(C(C)(C)C)cc2)c(C)c1`, the T/C runs as follows: under setting [8], 103 % of control; under setting [9], 117 % of control.
